This note sets out measurements from EP2769723A1, “Compounds for use in inhibiting HIV capsid assembly” (priority 2013, dated 2014).

Structures can show the parent of a compound that is named as a salt. Where two headings read alike, the source gives them in different places.

Broadly, the IC50 is the midpoint of a concentration-inhibition curve.

Data set [1] concerns the target T1, CA (Human immunodeficiency virus type 1 group M subtype B, UniProt P12493).
T1 construct: a fusion protein of CA with glutathione-S-transferase (CA-GST)
Description: ALPHA screen (AlphaScreen): inhibition of CAI binding to CA. Particulars: CAI-biotin peptide / CA-GST; compounds screened at 0.5-100 µM; read-out: α screen IC50. Also on record: species or system HIV-1. Here is the method: The AlphaScreen experiments are performed using Perkin Elmer Enspire plate reader in white 96-well ProxiPlates and PBS supplemented with 0.05% Tween20, 2mM DTT, 2% DMSO. First, Streptavidin-coated Donor beads are used to capture the CAI-biotin peptide. In the other solution, a fusion protein of CA with glutathione-S-transferase (CA-GST) is mixed with GSH Acceptor beads. Both mixtures were incubated and then mixed together. To test the ability of prepared organic compounds to inhibit the CAI binding to CA, they are screened at concentrations between 0.5-100 µM and IC50 values are calculated from the influenced signals.
Upon illumination by laser at 680 nm, Donor beads containing the photosensitizer phthalocyanine convert ambient oxygen to an excited form of singlet oxygen ^1O2. Singlet oxygen can within its half-life of ~ 4 µs diffuse approximately 200 nm in solution. If an Acceptor bead is within that proximity, which is mostly upon CA:CAI interaction, energy is transferred from the singlet oxygen to thioxene derivates within the Acceptor and signal at 520 - 620 nm is emitted.
On the technique in general: Bead proximity is the source of the signal in Alpha formats.

The subject of data set [2] is wild type NL4.3 HIV-1. Description: Tissue culture infectivity test, TZM titration of supernatants from infected TZM cells. The format is cell-based. To be noted: Human immunodeficiency virus 1, TZM. The protocol:
Hits selected in the YFP-screen were further evaluated in the tissue culture experiments with cells infected with the wild type NL4.3 HIV-1. The virus for infection was obtained from co-culture of MT4 cells. The MT4 cells co-culture was synchronized for one week and then used for the infection of fresh MT 4 cells. 48 hrs post-infection was the culture supernatant harvested, cleared by the filtration through […] filter and stored in -80 °C in 1 ml aliquots. Amount of virus was quantified by enzyme-linked immuno sorbent assay (ELISA) with antibodies against HIV-1 CA (3 ng of CA/ml) and blue cell assay (1x10^5 IU/ml), which gives 3 x 10^4 IU/ng of CA.
For compounds testing the TZM cells were seeded on 96-well plate in the density 5 x 10^3 cells per well. The culture media was aspirated approx. 16 hrs later and cells were infected by the wild type NLA.3 HIV-1 by addition of 50J..il of prepared virus stock diluted with 50 µl of complete DMEM. The compounds were added twice to ensure that there are not any preassembled viruses present at the time of their addition. Compounds were first added 8 hrs post-infection and then 24 hrs later. In both cases the old culture media were replaced by 100 µl of fresh complete DMEM prior to the compounds addition. Different compounds concentrations were tested, but the DMSO concentration never exceeded 1 % DMSO. As controls were used cells treated only with 1 % DMSO and cells treated with 0,1 µM Lopinavir (HIV-1 protease inhibitor). Supernatant was harvested 24 hrs after the second compound addition, i.e. 56 hrs post-infection. Harvested supernatants were immediately titrated on the fresh TZM cells in aim to perform the infectivity assay (TZM titration), or inactivated by addition of Triton X-100 to the final concentration 0.025 % for further ELISA analysis.
TZM titration was performed on the cells seeded day before on 96-well plate in the density 5 x 10^3 cells per well. The analysis was performed for each compound concentration at three different dilutions and in duplicates. The culture media was aspired and cells were lysed 48 hrs post-infection by addition of 100 µl of SteadyGlo luciferase substrate (Promega) diluted 1 : 1 by complete DMEM. The luminescence signal was measured on Luminoskan Ascent (Thermo Labsystems) after the transfer of 80 µl of lysate to the flat bottom white polystyrene assay plates (Costar).

Data set [3] is described as follows: in vitro. The data set is classed as cell-based. Particulars: human. The protocol: (§1) Cytotoxicity of selected hits tested in the assay with NL4.3 infected cells was determined by MTT test. TZM cells were seeded on the previous day on 96-well plate in the density 5 x 10^3 cells per well. The tested compounds were added in different concentrations, but the DMSO concentration never exceeded 1 % DMSO. As controls were used cells treated only with 1 % DMSO (non-toxic concentration) and cells treated with 5 % DMSO (toxic concentration). 20 µl of the CellTiter 96 Aqueous One substrate (Promega) was added to the 100 µl of culture media 48 hrs after the compounds addition and the color development was quantified 4 hrs later by measuring the absorbance at 490 nm on Saphire reader. Compounds were consider non-cytotoxic (at given concentrations) when the measured values were higher than 80 % of the value of 1 % DMSO treated cells.

Data set [4] relates to TZM cells. Description: in vitro. Particulars: Table 4; non-cytotoxic when values higher than 80 % of 1 % DMSO treated cells. The format is cell-based. Here is the method: as §1
The mark [5] stands for this setting: Table 4, non-cytotoxic when values higher than 80 % of 1 % DMSO treated cells, read-out: toxicity LC50.
[6] abbreviates: Table 5, MTT cytotoxicity test, read-out: CC50.
Setting [7] is: read-out: tissue culture IC50 (µM).
Where [8] appears, read: Table 4, cells infected with wild type NL4.3 HIV-1, read-out: tissue culture IC50.

Turning to `c1cncc(-c2nc(Nc3ccc4[nH]nnc4c3)c3ccccc3n2)c1` [AMR.325], the figures for the IC50 in data set [1] and in data set [2] were over 200 µM and 6.9 µM, respectively. The CC50 at 48 h in data set [3] (tzm cells, Table 5, MTT cytotoxicity test, read-out: CC50) was 200 µM.
For `CNc1ccc([N+](=O)[O-])cc1Nc1nc(-c2cccnc2)nc2ccccc12` [AMR.494], the values for the concentration for half-maximal inhibition (IC50) in data set [1] and in data set [2] were 0.9 µM and 1.8 µM, respectively. Besides, the CC50 at 48 h in data set [3] (setting [5]) was about 15 µM; in data set [3] (setting [6]), 16.1 µM.
Regarding `O=[N+]([O-])c1ccc(Nc2nc(-c3cccnc3)nc3ccccc23)c(I)c1` [KP-108], the IC50 in data set [2] (setting [7]) was about 1.5 µM. Further, in data set [3] (setting [5]), the CC50 at 48 h was about 20 µM.
Taken in the same sequence, the figures for `OCc1ccc(Nc2nc(-c3cccnc3)nc3ccccc23)cc1` [KP-236] were about 10 µM and about 10 µM.
Consider `CCN(CC)c1nc(-c2cccnc2)nc2ccccc12` [KP-237], for which, in data set [2] (setting [7]), the IC50 is over 10 µM. For the same molecule, the “toxicity LC50 (µM)” value in data set [4] was “non-toxic”.
Taken in the same sequence, the figures for `NNC(=O)c1ccc(Nc2nc(-c3cccnc3)nc3ccccc23)cc1` [KP-242] were over 10 µM and “non-toxic”.
On the same counts, the results for `Oc1cc(Cl)cc(Nc2nc(-c3cccnc3)nc3ccccc23)c1` [KP-251] are about 5 µM and “non-toxic”.
On the same counts, the results for `Clc1ccc(Nc2nc(-c3cccnc3)nc3ccccc23)c(Cl)c1Cl` [KP-260] are over 10 µM and “non-toxic”.
Consider `Fc1cc(Nc2nc(Nc3cc(F)c(F)c(F)c3)c3ccccc3n2)cc(F)c1F` [KP-265], for which the IC50 in data set [2] (setting [7]) is about 10 µM. In data set [4], the “toxicity LC50 (µM)” value is listed as “non-toxic”.
Taken in the same sequence, the figures for `Fc1cc(Nc2nc(N3CCOCC3)nc3ccccc23)cc(F)c1F` [KP-268] were over 10 µM and “non-toxic”.
Regarding `O=S(=O)(c1ccc(Nc2nc(-c3cccnc3)nc3ccccc23)cc1)c1nccs1` [KP-270], the IC50 in data set [2] (setting [7]) was over 10 µM. In data set [4], the “toxicity LC50 (µM)” value was “non-toxic”.
Taken in the same sequence, the figures for `Fc1ccc(Nc2nc(-c3cccnc3)nc3ccccc23)cc1F` [KP-271] were about 10 µM and “non-toxic”.
On the same counts, the results for `COc1cc2nc(Nc3cc(F)c(F)c(F)c3)nc(Nc3cc(F)c(F)c(F)c3)c2cc1OC` [KP-272] are under 5 µM and “non-toxic”.
Taken in the same sequence, the figures for `Cc1ccc(Nc2nc(-c3cccnc3)nc3ccccc23)cc1C(F)(F)F` [KP-278] were about 10 µM and “non-toxic”.
On to `COc1ccc(Nc2nc(-c3cccnc3)nc3ccccc23)cn1` [KP-283], for which the IC50 in data set [2] (setting [7]) is over 10 µM. In data set [4], the “toxicity LC50 (µM)” value is given as “non-toxic”.
On the same counts, the results for `COc1ccc(Nc2nc(Cl)nc3ccccc23)cn1` [KP-288] are over 10 µM and “non-toxic”.
On the same counts, the results for `COc1ccc(Nc2nc(-c3cc(F)c(F)c(F)c3)nc3ccccc23)cn1` [KP-291] are over 10 µM and “non-toxic”.
On the same counts, the results for `c1cncc(-c2nc(Oc3nc(-c4cccnc4)nc4ccccc34)c3ccccc3n2)c1` [OSA-296] are over 10 µM and “non-toxic”.
In the case of `O=C(c1ccccc1)c1ccc(Nc2nc(-c3ccncc3)nc3ccccc23)cc1` [OSR-48], in data set [2] (setting [7]), the IC50 is over 25 µM. Also, the “toxicity LC50 (µM)” value in data set [4] is recorded as “non toxic”.
Turning to `CNc1ccc([N+](=O)[O-])cc1Nc1nc(-c2ccc(C(=O)c3ccccc3)cc2)nc2ccccc12` [OSR-77], the IC50 was 2 µM in data set [2] and about 3 µM in data set [2] (setting [7]). Also, the results for the CC50 at 48 h in data set [3] (setting [5]) and in data set [3] (setting [6]) were about 7 µM and 7.1 µM, respectively.
As to `COCCOc1cc2nc(-c3cccnc3)nc(Nc3ccc(C(=O)O)cc3O)c2cc1OCCOC` [OSR-79 free base], the IC50 in data set [2] (setting [7]) is over 25 µM. Further, the “toxicity LC50 (µM)” value in data set [4] is “non toxic”.
Consider `NC(=O)c1c(F)cccc1Nc1nc(-c2ccccn2)nc2ccccc12` [OSR-85], for which the IC50 in data set [2] is 6.5 µM; in data set [2] (setting [7]), about 8 µM. In addition, the “toxicity LC50 (µM)” value in data set [4] is “non toxic”. The CC50 at 48 h in data set [3] (setting [6]) was determined as 125 µM.
For `O=[N+]([O-])c1ccc(F)c(Nc2nc(-c3cccnc3)nc3cc(C(F)(F)F)ccc23)c1` [OSR-178], the concentration for half-maximal inhibition (IC50) is 1.5 µM in data set [2] and about 5 µM in data set [2] (setting [7]). Moreover, the CC50 at 48 h in data set [3] (setting [5]) was about 11 µM; in data set [3] (setting [6]) it was 5 µM.
Take `O[C@H]1CC[C@H](Nc2nc(-c3cccnc3)nc3ccccc23)CC1` [OSR-183]: in data set [2] (setting [7]), the IC50 was over 25 µM. Also, the “toxicity LC50 (µM)” value in data set [4] is recorded as “non-toxic”.
On the same counts, the results for `FC(F)(F)c1cccc(Nc2nc(-c3cccnc3)nc3ccccc23)c1` [OSR-198] are over 25 µM and “non-toxic”.
On to `Fc1cc(Nc2nc(-c3cccnc3)nc3ccccc23)cc(F)c1F` [OSR-199], for which the IC50 is 5.1 µM in data set [2] and about 5 µM in data set [2] (setting [7]). In data set [4], the “toxicity LC50 (µM)” value is reported as “non-toxic”. Moreover, in data set [3] (setting [6]), the CC50 at 48 h was determined as 100 µM.
On the same counts, the results for `FC(F)(F)c1cccc(Nc2nc(-c3cccnc3)nc3cc(C(F)(F)F)ccc23)c1` [OSR-201] are 8.5 µM, about 8 µM, “non-toxic” and 25 µM.
As for `Fc1cc(Nc2cc(-c3cccnc3)nc3ccccc23)cc(F)c1F` [OSR-205], the IC50 in data set [2] (setting [7]) is about 10 µM. Moreover, in data set [4], the “toxicity LC50 (µM)” value is reported as “non-toxic”.
For `CCOc1nc(-c2cccnc2)nc2ccccc12` [OSR-236], in data set [2] (setting [8]), the IC50 lay within 10 to 15 µM. Moreover, the “toxicity LC50 (µM)” value in data set [4] is “non-toxic”.
As to `CN(C)c1nc(-c2cccnc2)nc2ccc(O)cc12` [OSR-242X], the IC50 in data set [2] (setting [8]) was in the range of 0.5 to 1 µM. In addition, the “toxicity LC50 (µM)” value in data set [4] was “non-toxic”.
As to `COCCN(CCOC)c1nc(-c2cccnc2)nc2ccccc12` [OSR-283 HCl], the IC50 in data set [2] (setting [7]) was over 10 µM. Further, in data set [4], the “toxicity LC50 (µM)” value was “non-toxic”.
On the same counts, the results for `CC(C)(C)Oc1nc(-c2cccnc2)nc2ccccc12` [OSR-285] are over 10 µM and “non-toxic”.
Taken in the same sequence, the figures for `c1ccc(Sc2nc(-c3cccnc3)nc3ccccc23)cc1` [OSR-290] were over 10 µM and “non-toxic”.
Taken in the same sequence, the figures for `CC(C)Nc1nc(-c2cccnc2)nc2ccccc12` [OSR-295] were over 10 µM and “non-toxic”.
As to `Fc1ccc(Nc2nc(-c3cccnc3)nc3ccccc23)c(F)c1F` [OSR-298], the IC50 in data set [2] (setting [7]) is over 10 µM. In addition, in data set [4], the “toxicity LC50 (µM)” value is on record as “non-toxic”.
Take `Fc1cc(F)c(Nc2nc(-c3cccnc3)nc3ccccc23)cc1F` [OSR-299]: the IC50 in data set [2] (setting [7]) was about 10 µM. The “toxicity LC50 (µM)” value in data set [4] is reported as “non-toxic”.
For `CN(C)c1nc(-c2cccnc2)nc2ccc(OS(C)(=O)=O)cc12` [OSR-302], the CC50 at 48 h in data set [3] (setting [5]) was about 7 µM.
